Reference: publication PMC7460285, “OctoPartenopin: Identification and Preliminary Characterization of a Novel Antimicrobial Peptide from the Suckers of Octopus vulgaris” (Marine Drugs, 2020)
Ends that are not written are not given here.

Assays:
C. albicans ATCC 90028 [1] = experiment: Broth microdilution MIC determination; assay type: cell-based, Candida albicans; conditions: 80% inhibition of growth in liquid medium (TSB), 37 °C, 18 h, mean of three replicates ± SD
Experimental: (§1) Microorganisms used for this study were as follows: Staphylococcus aureus ATCC 6538, Pseudomonas aeruginosa ATCC 9027, and Candida albicans ATCC 90028. Microorganisms were routinely cultured in tryptic soy broth (TSB) supplemented with 0.1% glucose, at 37 °C, for 18 h prior to experiments, and corresponding cell concentration was adjusted to 10^6 CFU mL^−1 by optical density at 600 nm. Stock cultures were maintained in trypticase soy agar (TSA) and Sabouraud dextrose agar containing glycerol at −80 °C. The minimum inhibitory concentration (MIC) determination was conducted as described in our previous papers. Briefly, microbes were inoculated in TSB and incubated at 37 °C to the exponential phase. Then, the inoculum was diluted with fresh TSB to 10^6 CFU/mL, and 50 μL microbial dilutions were mixed with serial dilutions of fractions or peptides (50 μL) in 96-well microtiter plates.

S. aureus ATCC 6538 [2] = experiment: Broth microdilution MIC determination; assay type: cell-based, Staphylococcus aureus; conditions: 80% inhibition of growth in liquid medium (TSB), 37 °C, 18 h, mean of three replicates ± SD
Experimental: as §1

[3] = tested on: mature biofilms of S. aureus, P. aeruginosa, and C. albicans; experiment: Mature biofilm eradication assay, crystal violet; assay type: cell-based; conditions: preformed 24 h biofilm, peptide 10 to 80 μM for 24 h, 30 °C; for Dispersion (clearance) of mature biofilm biomass: strain and concentration not stated for the values (Figure 4)
Experimental: (§2) The microorganism’s ability to form biofilm was determined using the method previously described in our laboratory. Bacterial and fungal biofilm prevention and eradication assays were performed based on our published protocols. Synthetized peptides (P0–P4) were tested at sub-MIC concentrations ranging from 10 to 80 μM in triplicate in both assays. For the prevention of biofilm formation, diluted cultures of each strain were added to 96-well plates and incubated with peptides (at concentrations ranging from 10 to 80 μM) at 30 °C, for 24 h. For the eradication of mature biofilm, diluted cultures of C. albicans and two bacteria were added to 96-well plates and incubated at 30 °C. After 24 h, the planktonic cells and medium were aspirated from the wells and fresh medium was added to the well, followed by peptides at the same concentrations. Plates were incubated at 30 °C, for an additional 24 h. For both above mentioned assays, the planktonic cells and medium were aspirated at the end of the final incubation period, and wells were washed twice with PBS. The residual attached biofilms were fixed with 95% v/v ethanol per well and, after 20 min, plates were emptied and left to dry. Plates were stained for 15 min with 0.1% w/v crystal violet. Excess stain was then removed by rinsing the plate with PBS. The plates were allowed to dry, and the crystal violet-stained biofilm was solubilized with 200 μL of 30% v/v glacial acetic acid per well. The OD of each well was measured at 550 nm with a microplate reader. The same formula described above was used to quantify the biofilm biomass forming when the incubation was done with peptides or when remaining after incubation with peptides. The percentage of biofilm inhibition and eradication was determined by the formula: biofilm reduction % = OD control − OD sample/OD control × 100%.

P. aeruginosa ATCC 9027 [4] = experiment: Broth microdilution MIC determination; assay type: cell-based, Pseudomonas aeruginosa; conditions: 80% inhibition of growth in liquid medium (TSB), 37 °C, 18 h, mean of three replicates ± SD
Experimental: as §1

S. aureus ATCC 6538 [5] = experiment: Agar diffusion assay (inhibition zone diameter); assay type: cell-based, Staphylococcus aureus; design: key: R: Resistant; I: Intermediate; S: Sensitive; conditions: 5 μg ampicillin, 5 μg gentamicin, 37 °C, 24 h
Experimental: (§3) Microorganisms used for this study were as follows: Staphylococcus aureus ATCC 6538, Pseudomonas aeruginosa ATCC 9027, and Candida albicans ATCC 90028. Microorganisms were routinely cultured in tryptic soy broth (TSB) supplemented with 0.1% glucose, at 37 °C, for 18 h prior to experiments, and corresponding cell concentration was adjusted to 10^6 CFU mL^−1 by optical density at 600 nm. Stock cultures were maintained in trypticase soy agar (TSA) and Sabouraud dextrose agar containing glycerol at −80 °C.
(§4) For antimicrobial testing, the agar disc diffusion method was used and the antimicrobial susceptibility was detected by analyzing the inhibition zones, measured and compared according to the standards set by the CLSI [106], which classify the strains as sensitive (S), intermediate (I), or resistant (R). All tests were performed in duplicate, and the antimicrobial activity was expressed as the mean of inhibition diameters (mm, ±standard deviation, SD) produced by the extracts.
(§5) Microorganisms were cultivated overnight and a suspension containing 10^6 CFU mL^−1 was spread on plates containing TSA or Sabouraud agar. Holes of approximately 5 × 3 mm were made in the agar and were filled with 30 μL of the extract stock solution (1 mg/mL). After incubation at 37 °C for 24 h, inhibition zones were measured in millimeters and compared to the controls. […]

P. aeruginosa ATCC 9027 [6] = experiment: Agar diffusion assay (inhibition zone diameter); assay type: cell-based, Pseudomonas aeruginosa; design: key: R: Resistant; I: Intermediate; S: Sensitive; conditions: 5 μg ampicillin, 5 μg gentamicin, 37 °C, 24 h
Experimental: as §3, §4, §5

C. albicans biofilm = assay type: cell-based, Candida albicans; conditions: 24 h
Experimental: as §2, with “For both above mentioned assays, the planktonic cells and medium were aspirated at the end of the final incubation period, and wells were washed twice with PBS. The residual attached biofilms were fixed with 95% v/v ethanol per well and, after 20 min, plates were emptied and left to dry. Plates were stained for 15 min with 0.1% w/v crystal violet. Excess stain was then removed by rinsing the plate with PBS. The plates were allowed to dry, and the crystal violet-stained biofilm was solubilized with 200 μL of 30% v/v glacial acetic acid per well.” left out

C. albicans ATCC 90028 [7] = experiment: Agar diffusion assay (inhibition zone diameter); assay type: cell-based, Candida albicans; design: key: R: Resistant; I: Intermediate; S: Sensitive; conditions: 1 μg amphotericin B, 37 °C, 24 h
Experimental: as §3, §4, §5

| Molecule | MIC80 synthetized peptides (C. albicans ATCC 90028 [1]) [µM] | MIC80 synthetized peptides (S. aureus ATCC 6538 [2]) [µM] | Dispersion (clearance) of mature biofilm biomass [3] | MIC80 synthetized peptides (P. aeruginosa ATCC 9027 [4]) [µM] | further results |
| --- | --- | --- | --- | --- | --- |
| EGQGVISLQAGTNK-NH2 [P3] | 100 ± 4 | 80 ± 1 | ~80% | 50 ± 3 | – |
| GEGIIGLQAGTNKFASQIGMKIGAVRHIADIR-NH2 [P4] | 180 ± 5 | 80 ± 5 | – | 50 ± 2 | – |
| CNC(C)C1CCC(N)C(OC2C(N)CC(N)C(OC3OCC(C)(O)C(NC)C3O)C2O)O1 (stereo not shown) [G, Gentamicin] | – | – | – | – | Susceptibility class to positive control (CLSI interpretative chart) (S. aureus ATCC 6538 [5]): S; Susceptibility class to positive control (CLSI interpretative chart) (P. aeruginosa ATCC 9027 [6]): S |
| QAGSNKGASQKGMS-NH2 [P2] | 100 ± 3 | 50 ± 5 | ~90% | 50 ± 2 | Inhibition rate of biofilm formation (C. albicans biofilm): about 40% |
| CC1(C)S[C@@H]2[C@H](NC(=O)[C@H](N)c3ccccc3)C(=O)N2[C@H]1C(=O)O [AMP, Ampicillin] | – | – | – | – | Susceptibility class to positive control (CLSI interpretative chart) (S. aureus ATCC 6538 [5]): S; Susceptibility class to positive control (CLSI interpretative chart) (P. aeruginosa ATCC 9027 [6]): R |
| QAGTNK-NH2 [P1] | 200 ± 5 | 150 ± 3 | – | 100 ± 5 | Antibiofilm (eradication) activity, in words [3]: weakest antibiofilm activity |
| AGTNK-NH2 [P0] | 200 ± 3 | 150 ± 2 | about 70% | 200 ± 3 | – |
| C[C@@H]1[C@H](O)[C@@H](C)/C=C/C=C/C=C/C=C/C=C/C=C/C=C/[C@H](O[C@@H]2O[C@H](C)[C@@H](O)[C@H](N)[C@@H]2O)C[C@@H]2O[C@](O)(C[C@@H](O)C[C@@H](O)[C@H](O)CC[C@@H](O)C[C@@H](O)CC(=O)O[C@H]1C)C[C@H](O)[C@H]2C(=O)O [AMPH-B, amphotericin B] | – | – | – | – | Susceptibility class to positive control (CLSI interpretative chart) (C. albicans ATCC 90028 [7]): S |
